We go through four compounds from US6727401B1, “Pressure sensitive adhesive matrix patch for the treatment of onychomycosis” (Watson Pharmaceuticals, Inc., priority 1998, dated 2004).

Data set [1] is described as follows: In vitro human cadaver nail flux study, modified Franz cells, matrix patch. It counts as in vitro ADME. The method, then:
The cumulative amount of drug permeated per unit area at any time t(Qt, μg/cm^2) was determined as follows: [formula]
where Cn is the concentration (μg/ml) of the drug in the receiver sample for the corresponding sample time, V is the volume of fluid in the receiver chamber (˜6.3 cm^3), and A is the diffusion area of the cell (0.64 cm^2).
(§1) In vitro human cadaver nail flux studies were conducted using modified Franz non-jacketed permeation cells. The temperature of the nail surface was maintained at 32° C. by placing the cells in a circulating water bath positioned over a stirring module. Human finger nail or toe nail was stored under frozen conditions in 0.02% (w/v) sodium azide solution. Nails that were greater than 1 cm^2 in area were used for the flux studies. Nails with dorsal side facing the donor compartment were sandwiched between two layers of a closed cell polyethylene foam film. Annular ring of 2.38 cm outer diameter and 0.95 cm inner diameter was cut from the backing film. The area of the donut hole (0.97 cm^2) is large enough to provide complete contact with the receiver media. The purpose of the foam backing film was to prevent any leakage of receiver medium from the cell assembly. The nails were allowed to hydrate at 32° C. overnight with 0.02% (w/v) sodium azide solution in the receiver compartment. The following morning, 0.71 cm^2 circular matrix patches were laminated onto the dorsal side of the nail. Each nail matrix sandwich was then loaded between the donor and receiver compartments of a diffusion cell, with the ventral side of nail facing the receiver compartment, and clamped in place.

The nature of data set [2]: Amount of drug retained in the nail after matrix patch application. Format: in vitro ADME. The conditions noted are these: human, 48 hours. Here is the method: as §1
The remaining portion of nail was also dried, weighed, extracted in dimethyl sulfoxide and analyzed for drug content.

Data set [3] in a line: In vitro human cadaver skin flux study, modified Franz cells. Format: in vitro ADME. Here is the method:
In vitro human cadaver skin flux studies were conducted using modified Franz non-jacketed permeation cells. The temperature of the skin surface was maintained at 32° C. by placing the cells in a circulating water bath positioned over a stirring module. The epidermal membrane was separated from the dermatomed human cadaver skin by the heat-separation method of Kligman and Christopher (Arch. Dermatol. 88:702 (1963)) involving the exposure of the full thickness skin to 60° C. heat for 60 seconds, after which time the stratum corneum and the epidermis (epidermal membrane) were gently peeled off the dermis.
For a matrix skin flux study, the heat separated human epidermal membrane was cut into rectangular strips. The matrix was cut into 0.71 cm^2 circular discs. […] At predetermined sampling intervals, the entire contents of the receiver compartment were collected for drug quantitation and the receiver compartment was filled with fresh receiver solution, taking care to eliminate any air bubbles at the skin/solution interface.
For the topical gel study, included for illustration purposes, a thin film of gel approximately 10 μl/cm^2, was applied to the stratum-corneum surface of a hydrated piece of human cadaver skin. […] At predetermined sampling intervals, the entire contents of the receiver compartment were collected for drug quantitation. […]

The nature of data set [4]: Amount of drug retained in the skin after matrix patch application. The conditions noted are these: patch at 24 hours versus day 1 after oral administration.
For data set [5] the following is noted: long term, high dose systemic therapy, cited from earlier work.

Structures are written as SMILES.

Turning to `Clc1ccccc1C(c1ccccc1)(c1ccccc1)n1ccnc1` [clotrimazole], the “permeation across the nail” value in data set [1] is listed as “no permeation”. In addition, the “amount of drug retained in the nail per unit dry weight of nail” value in data set [2] is listed as “greater than 500 μg/g”. Further, the “skin flux without an enhancer” value in data set [3] is listed as “below the detection limit”.

On to `OC(Cn1cncn1)(Cn1cncn1)c1ccc(F)cc1F` [fluconazole], for which the “permeation across the nail” value in data set [1] is “no permeation”. Besides, in data set [2], the “times higher amount of drug in the nail after patch application compared to reported oral administration” value was 1000-2000 times. For the same compound, the “times higher amount of fluconazole in the skin compared to oral administration” value in data set [4] is 500-600 times.

As to `CC(=O)N1CCN(c2ccc(OCC3COC(Cn4ccnc4)(c4ccc(Cl)cc4Cl)O3)cc2)CC1` (centres unmarked) [ketoconazole], in data set [3] (enhancer lauramide-DEA, acrylic pressure sensitive adhesive), the “effect of the presence of an enhancer on skin flux” value was “doubles the flux”. In addition, in data set [5], the reported liver toxicity result is recorded as “liver toxicity effects”. Moreover, in data set [5] (due to adverse effects on the testes), the “reported effect on testosterone levels in blood” value is given as “reduces testosterone levels in blood”.

As for `CN(C/C=C/C#CC(C)(C)C)Cc1cccc2ccccc12` [terbinafine], the “permeation across the nail” value in data set [1] was “no permeation”. Also, the “times higher amount of drug in the nail after patch application compared to reported oral administration” value in data set [2] is 100-1000 times.
